Where a name gives a salt, the structure may show the parent alone. Read-outs that look alike come from different tables or passages of the source. Values belong to the molecule of their own block, whether it stands above or below them.
Biological target: Nav1.6 (Homo sapiens, UniProt Q9UQD0)
Experiment: Nav two-pulse protocol, IonWorks Quattro electrophysiology
Type: cell-based
Conditions: -120 mV to 0 mV, compound incubated 300 s
Experimental: Compound Plate Preparation
Supplied compounds were sent as Assay Ready Plates, with 2 μL per well of compound in DMSO at 300× the final assay concentrations as described above and in the project proposal. All assay plates are stored at in a −80° C. freezer.
On the day of the assay, 198 μL of external solution was added to the appropriate assay plate and mixed thoroughly. This provided a 1:100 dilution. A further 1:3 dilution occurred upon addition to the cells in the IonWorks, giving a 1:300 dilution in total.
On each assay plate, at least 8 wells were reserved for vehicle control (0.3% DMSO) and at least 8 wells for each positive control specific to the cell line tested. The positive controls were tested in an 8-point dose response with 3-fold dilutions to determine an IC50 value for each run. The positive control compounds are outlined below.
Ion Channel Positive Control & Concentrations
Nav1.6/1.2 Lidocaine: 8, 3-fold dilutions starting at 100 μM
Electrophysiological Recording Solutions
The solutions for recording currents were are follows:
Amphotericin B was used to obtain electrical access to the cell interior at a final concentration of 200 μg/ml in internal recording solution.
Experimental Protocols & Data Analysis
Nav currents were evoked by stepping from a holding potential of −120 mV to 0 mV for 2.5 s (pulse 1), followed by a 5 ms inter-pulse interval, and stepping from a holding potential of −120 mV to 0 mV for 20 ms (pulse 2). The voltage protocol was applied (Pre), compounds added, incubated for 300 seconds, and the voltage protocol was applied a final time (Post) on the IonWorks Quattro.
The parameters measured were the maximum inward current evoked on stepping to 0 mV from the 1st and 2nd pulse. All data were filtered for seal quality, seal drop, and current amplitude. The peak current amplitude (Peak) was calculated before (Pre) and after (Post) compound addition to the amount of block was assessed by dividing the Post-compound current amplitude by the Pre-compound current amplitude. These procedures were implemented for the 1st and 2nd pulse.

Nav1.6, sequence (Q9UQD0 whole entry): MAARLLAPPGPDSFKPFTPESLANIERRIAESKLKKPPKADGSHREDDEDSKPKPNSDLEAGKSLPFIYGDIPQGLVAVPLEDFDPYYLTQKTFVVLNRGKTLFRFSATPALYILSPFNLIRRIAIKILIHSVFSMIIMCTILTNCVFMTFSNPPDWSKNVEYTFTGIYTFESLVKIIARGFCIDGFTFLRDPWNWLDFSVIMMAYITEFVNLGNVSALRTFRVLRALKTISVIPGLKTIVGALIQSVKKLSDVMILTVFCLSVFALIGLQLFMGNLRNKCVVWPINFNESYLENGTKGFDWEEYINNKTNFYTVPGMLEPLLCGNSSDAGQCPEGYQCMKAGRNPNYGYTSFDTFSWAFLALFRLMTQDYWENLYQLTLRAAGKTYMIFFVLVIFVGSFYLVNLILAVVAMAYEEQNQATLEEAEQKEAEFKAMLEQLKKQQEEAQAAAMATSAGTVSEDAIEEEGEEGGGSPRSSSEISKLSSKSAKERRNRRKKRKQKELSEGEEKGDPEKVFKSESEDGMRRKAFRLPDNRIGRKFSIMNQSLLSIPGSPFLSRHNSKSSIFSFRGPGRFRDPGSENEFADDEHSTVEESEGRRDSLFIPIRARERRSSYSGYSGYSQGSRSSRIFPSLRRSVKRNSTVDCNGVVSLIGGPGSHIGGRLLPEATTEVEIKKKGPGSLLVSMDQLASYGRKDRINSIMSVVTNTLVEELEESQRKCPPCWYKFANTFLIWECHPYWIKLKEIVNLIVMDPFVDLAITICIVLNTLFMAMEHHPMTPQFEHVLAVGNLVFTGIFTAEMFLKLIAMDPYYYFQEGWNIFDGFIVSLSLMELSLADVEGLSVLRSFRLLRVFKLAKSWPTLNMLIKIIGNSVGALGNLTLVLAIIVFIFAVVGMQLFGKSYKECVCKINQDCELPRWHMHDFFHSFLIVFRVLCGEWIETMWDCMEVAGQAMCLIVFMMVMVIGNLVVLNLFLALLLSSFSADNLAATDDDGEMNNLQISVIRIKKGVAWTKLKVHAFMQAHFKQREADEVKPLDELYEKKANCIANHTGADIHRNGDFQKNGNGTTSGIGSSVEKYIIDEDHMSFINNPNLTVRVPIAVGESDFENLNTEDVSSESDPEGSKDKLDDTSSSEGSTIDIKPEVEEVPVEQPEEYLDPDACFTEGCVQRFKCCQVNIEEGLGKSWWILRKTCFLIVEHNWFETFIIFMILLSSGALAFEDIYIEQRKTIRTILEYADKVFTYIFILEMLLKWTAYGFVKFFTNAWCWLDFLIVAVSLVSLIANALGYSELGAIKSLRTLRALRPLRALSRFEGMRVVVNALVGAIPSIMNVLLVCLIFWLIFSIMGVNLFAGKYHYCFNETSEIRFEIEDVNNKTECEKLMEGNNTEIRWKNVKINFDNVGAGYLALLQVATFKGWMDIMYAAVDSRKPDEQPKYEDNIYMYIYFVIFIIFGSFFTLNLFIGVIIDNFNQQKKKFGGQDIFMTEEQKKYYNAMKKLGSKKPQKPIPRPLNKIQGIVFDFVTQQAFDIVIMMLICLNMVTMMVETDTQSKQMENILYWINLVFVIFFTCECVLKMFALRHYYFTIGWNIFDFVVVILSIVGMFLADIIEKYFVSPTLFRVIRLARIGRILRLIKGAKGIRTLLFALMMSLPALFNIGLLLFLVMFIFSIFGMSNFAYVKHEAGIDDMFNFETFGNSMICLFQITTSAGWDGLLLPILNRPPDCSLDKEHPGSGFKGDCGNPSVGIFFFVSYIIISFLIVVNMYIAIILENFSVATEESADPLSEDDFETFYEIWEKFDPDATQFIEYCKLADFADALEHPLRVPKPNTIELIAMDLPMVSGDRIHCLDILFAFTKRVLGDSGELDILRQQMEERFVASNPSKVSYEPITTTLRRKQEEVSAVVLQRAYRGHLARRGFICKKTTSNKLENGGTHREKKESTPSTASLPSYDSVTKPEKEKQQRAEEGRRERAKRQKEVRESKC

SMILES: O=C(NCc1ccccn1)C1CCN(Cc2cccc(OC(F)(F)F)c2)C1 (centres unmarked) [Compound 109, 1-(3-Trifluoromethoxy-benzyl)-pyrrolidine-3-carboxylic acid (pyridin-2-ylmethyl)-amide hydrochloride]
- IC50 (read-out: Nav1.6 Tonic): 10 to 20 µM
- IC50 (read-out: Nav1.6 inac): < 1 µM

SMILES: O=C(NCc1ccccn1)C1CCN(Cc2cccc(Oc3ccc(F)cc3)n2)C1 (centres unmarked) [Compound 20, 1-[6-(4-Fluoro-phenoxy)-pyridin-2-ylmethyl]-pyrrolidine-3-carboxylic acid (pyridin-2-ylmethyl)-amide]
- IC50 (read-out: Nav1.6 Tonic): > 20 µM
- IC50 (read-out: Nav1.6 inac): > 5 µM

SMILES: CC(C)COc1cccc(CN2CCC(c3noc(-c4ccccn4)n3)C2)c1 (centres unmarked) [Compound 48, 2-{3-[1-(3-Isobutoxy-benzyl)-pyrrolidin-3-yl]-[1,2,4]oxadiazol-5-yl}-pyridine]
- IC50 (read-out: Nav1.6 Tonic): > 20 µM
- IC50 (read-out: Nav1.6 inac): 1 to 5 µM

SMILES: O=C(NCC1CCCO1)C1CCN(Cc2cccc(Oc3ccccc3)c2)C1 (centres unmarked) [Compound 87, 1-(3-Phenoxy-benzyl)-pyrrolidine-3-carboxylic acid (tetrahydro-furan-2-ylmethyl)-amide]
- IC50 (read-out: Nav1.6 Tonic): < 10 µM
- IC50 (read-out: Nav1.6 inac): < 1 µM

SMILES: CCNC(=O)C1(C)CCN(C(=O)c2cccc(Oc3ccccc3)c2)C1 (centres unmarked) [Compound 40, 3-Methyl-1-(3-phenoxy-benzoyl)-pyrrolidine-3-carboxylic acid ethylamide]
- IC50 (read-out: Nav1.6 Tonic): 10 to 20 µM
- IC50 (read-out: Nav1.6 inac): < 1 µM

SMILES: O=C(NCc1ccccn1)C1CCN(Cc2ccc3c(c2)OC(F)(F)O3)C1 (centres unmarked) [Compound 31, 1-(2,2-Difluoro-benzo[1,3]dioxol-5-ylmethyl)-pyrrolidine-3-carboxylic acid (pyridin-2-ylmethyl)-amide]
- IC50 (read-out: Nav1.6 Tonic): > 20 µM
- IC50 (read-out: Nav1.6 inac): 1 to 5 µM

SMILES: CC(C)COc1cccc(CN2CCC(n3cc(-c4cccc(Br)n4)nn3)C2)c1 (centres unmarked) [Compound 63, 2-Bromo-6-{1-[1-(3-isobutoxy-benzyl)-pyrrolidin-3-yl]-1H-[1,2,3]triazol-4-yl}-pyridine]
- IC50 (read-out: Nav1.6 Tonic): > 20 µM
- IC50 (read-out: Nav1.6 inac): > 5 µM

SMILES: CC(C)COc1cccc(CN2CCC(Cn3ccnc3)C2)c1 (centres unmarked) [Compound 28, 1-[1-(3-Isobutoxy-benzyl)-pyrrolidin-3-ylmethyl]-1H-imidazole]
- IC50 (read-out: Nav1.6 Tonic): > 20 µM
- IC50 (read-out: Nav1.6 inac): < 1 µM

SMILES: Cc1cc(C)cc(Oc2cccc(CN3CCC(C(=O)NCc4ccccn4)C3)c2)c1 (stereo not drawn) [Compound 9, l-[3-(3,5-Dimethyl-phenoxy)-benzyl]-pyrrolidine-3-carboxylic acid (pyridin-2-ylmethyl)-amide]
- IC50 (read-out: Nav1.6 Tonic): > 20 µM
- IC50 (read-out: Nav1.6 inac): < 1 µM

SMILES: O=C(NCCc1c[nH]cn1)C1CCN(Cc2cccc(Oc3ccccc3)c2)C1 (centres unmarked) [Compound 86, 1-(3-Phenoxy-benzyl)-pyrrolidine-3-carboxylic acid [2-(1H-imidazol-4-yl)-ethyl]-amide]
- IC50 (read-out: Nav1.6 inac): > 5 µM

SMILES: O=C(NCc1cc(F)ccc1F)C1CCN(Cc2cccc(Oc3ccccc3)c2)C1 (centres unmarked) [Compound 77, 1-(3-Phenoxy-benzyl)-pyrrolidine-3-carboxylic acid 2,5-difluoro-benzylamide]
- IC50 (read-out: Nav1.6 Tonic): 10 to 20 µM
- IC50 (read-out: Nav1.6 inac): < 1 µM

SMILES: CC(C)COc1cccc(CN2CCC(n3cc(-c4ccccn4)nn3)C2)c1 (centres unmarked) [Compound 60, 2-{1-[1-(3-Isobutoxy-benzyl)-pyrrolidin-3-yl]-1H-[1,2,3]triazol-4-yl}-pyridine]
- IC50 (read-out: Nav1.6 Tonic): > 20 µM
- IC50 (read-out: Nav1.6 inac): 1 to 5 µM

SMILES: O=C(NCc1cccc(C(F)(F)F)c1)C1CCN(Cc2cccc(Oc3ccccc3)c2)C1 (centres unmarked) [Compound 70, 1-(3-Phenoxy-benzyl)-pyrrolidine-3-carboxylic acid 3-trifluoromethyl-benzylamide]
- IC50 (read-out: Nav1.6 Tonic): 10 to 20 µM
- IC50 (read-out: Nav1.6 inac): 1 to 5 µM

SMILES: COc1ccc(Oc2cccc(CN3CCC(C(=O)NCc4ccccn4)C3)c2)cc1 (centres unmarked) [Compound 6, 1-[3-(4-Methoxy-phenoxy)-benzyl]-pyrrolidine-3-carboxylic acid (pyridin-2-ylmethyl)-amide]
- IC50 (read-out: Nav1.6 Tonic): > 20 µM
- IC50 (read-out: Nav1.6 inac): > 5 µM

SMILES: O=C(NCc1cccs1)C1CCN(Cc2cccc(Oc3ccccc3)c2)C1 (centres unmarked) [Compound 88, 1-(3-Phenoxy-benzyl)-pyrrolidine-3-carboxylic acid (thiophen-2-ylmethyl)-amide]
- IC50 (read-out: Nav1.6 Tonic): > 20 µM
- IC50 (read-out: Nav1.6 inac): < 1 µM

SMILES: C[C@]1(C(=O)NCc2ccccn2)CCN(Cc2cccc(Oc3ccccc3)c2)C1 [Compound 38, (S)-3-methyl-1-(3-phenoxybenzyl)-N-(pyridin-2-ylmethyl)pyrrolidine-3-carboxamide]
- IC50 (read-out: Nav1.6 Tonic): > 20 µM
- IC50 (read-out: Nav1.6 inac): > 5 µM

SMILES: COc1cccc(-c2cn(C3CCN(Cc4cccc(OCC(C)C)c4)C3)nn2)n1 (centres unmarked) [Compound 62, 2-{1-[1-(3-Isobutoxy-benzyl)-pyrrolidin-3-yl]-1H-[1,2,3]triazol-4-yl}-6-methoxy-pyridine]
- IC50 (read-out: Nav1.6 Tonic): > 20 µM
- IC50 (read-out: Nav1.6 inac): 1 to 5 µM

SMILES: COCCNC(=O)C1CN(Cc2cccc(Oc3ccccc3)c2)CCO1 (centres unmarked) [Compound 107, 4-(3-Phenoxy-benzyl)-morpholine-2-carboxylic acid (2-methoxy-ethyl)-amide]
- IC50 (read-out: Nav1.6 Tonic): > 20 µM
- IC50 (read-out: Nav1.6 inac): 1 to 5 µM

Second part, the molecule after the results:

- IC50 (read-out: Nav1.6 Tonic): > 20 µM
- IC50 (read-out: Nav1.6 inac): > 5 µM
SMILES: Cc1cccc(Oc2cccc(CN3CCC(C)(C(=O)NCc4ccccn4)C3)c2)c1 (centres unmarked) [Compound 45, 3-Methyl-1-(3-m-tolyloxy-benzyl)-pyrrolidine-3-carboxylic acid (pyridin-2-ylmethyl)-amide]

- IC50 (read-out: Nav1.6 Tonic): 10 to 20 µM
- IC50 (read-out: Nav1.6 inac): < 1 µM
SMILES: O=C(NCc1ccccn1)C1CCN(Cc2cccc(Oc3cccc(F)c3)c2)C1 (centres unmarked) [Compound 11, 1-[3-(3-Fluoro-phenoxy)-benzyl]-pyrrolidine-3-carboxylic acid (pyridin-2-ylmethyl)-amide]

- IC50 (read-out: Nav1.6 Tonic): > 20 µM
- IC50 (read-out: Nav1.6 inac): < 1 µM
SMILES: COc1ccccc1Oc1cccc(CN2CCC(C(=O)NCc3ccccn3)C2)c1 (centres unmarked) [Compound 7, 1-[3-(2-Methoxy-phenoxy)-benzyl]-pyrrolidine-3-carboxylic acid (pyridin-2-ylmethyl)-amide]

- IC50 (read-out: Nav1.6 Tonic): > 20 µM
- IC50 (read-out: Nav1.6 inac): 1 to 5 µM
SMILES: Cc1cccc(Oc2cccc(CN3CCC(F)(C(=O)NCc4ccccn4)C3)c2)c1 (centres unmarked) [Compound 21, 3-Fluoro-1-(3-m-tolyloxy-benzyl)-pyrrolidine-3-carboxylic acid (pyridin-2-ylmethyl)-amide]

- IC50 (read-out: Nav1.6 Tonic): 10 to 20 µM
- IC50 (read-out: Nav1.6 inac): < 1 µM
SMILES: O=C(NCc1ccc(F)c(F)c1)C1CCN(Cc2cccc(Oc3ccccc3)c2)C1 (centres unmarked) [Compound 80, 1-(3-Phenoxy-benzyl)-pyrrolidine-3-carboxylic acid 3,4-difluoro-benzylamide]

- IC50 (read-out: Nav1.6 Tonic): 10 to 20 µM
- IC50 (read-out: Nav1.6 inac): 1 to 5 µM
SMILES: O=C(NCc1ccc(Cl)cc1)C1CCN(Cc2cccc(Oc3ccccc3)c2)C1 (centres unmarked) [Compound 68, 1-(3-Phenoxy-benzyl)-pyrrolidine-3-carboxylic acid 4-chloro-benzylamide]

- IC50 (read-out: Nav1.6 Tonic): > 20 µM
- IC50 (read-out: Nav1.6 inac): < 1 µM
SMILES: O=C(NCc1ccccn1)C1CCN(Cc2cccc(Oc3cccc(C(F)(F)F)c3)c2)C1 (centres unmarked) [Compound 5, 1-[3-(3-Trifluoromethyl-phenoxy)-benzyl]-pyrrolidine-3-carboxylic acid (pyridin-2-ylmethyl)-amide]

- IC50 (read-out: Nav1.6 Tonic): > 20 µM
- IC50 (read-out: Nav1.6 inac): 1 to 5 µM
SMILES: Cc1ccc(CNC(=O)C2CCN(Cc3cccc(Oc4ccccc4)c3)C2)cc1 (centres unmarked) [Compound 83, 1-(3-Phenoxy-benzyl)-pyrrolidine-3-carboxylic acid 4-methyl-benzylamide]

- IC50 (read-out: Nav1.6 Tonic): > 20 µM
- IC50 (read-out: Nav1.6 inac): 1 to 5 µM
SMILES: Cc1cnc(CNC(=O)C2CCN(Cc3cccc(OCC(F)(F)F)c3)C2)cn1 (centres unmarked) [Compound 89, 1-[3-(2,2,2-Trifluoro-ethoxy)-benzyl]-pyrrolidine-3-carboxylic acid (5-methyl-pyrazin-2-ylmethyl)-amide]

- IC50 (read-out: Nav1.6 Tonic): 10 to 20 µM
- IC50 (read-out: Nav1.6 inac): 1 to 5 µM
SMILES: CCNC(=O)C1CN(Cc2cccc(Oc3ccccc3)c2)CCO1 (centres unmarked) [Compound 100, 4-(3-Phenoxy-benzyl)-morpholine-2-carboxylic acid ethylamide]

- IC50 (read-out: Nav1.6 Tonic): > 20 µM
- IC50 (read-out: Nav1.6 inac): 1 to 5 µM
SMILES: O=C(NCc1ccccn1)C1CCN(Cc2cccc(Oc3ccc(F)c(F)c3)c2)C1 (centres unmarked) [Compound 3, 1-[3-(3,4-Difluoro-phenoxy)-benzyl]-pyrrolidine-3-carboxylic acid (pyridin-2-ylmethyl)-amide]

- IC50 (read-out: Nav1.6 Tonic): > 20 µM
- IC50 (read-out: Nav1.6 inac): 1 to 5 µM
SMILES: CC(C)CSc1cccc(CN2CCC(C(=O)OCc3ccccn3)C2)c1 (centres unmarked) [Compound 46, 1-(3-Isobutylsulfanyl-benzyl)-pyrrolidine-3-carboxylic acid pyridin-2-ylmethyl ester]

- IC50 (read-out: Nav1.6 Tonic): 10 to 20 µM
- IC50 (read-out: Nav1.6 inac): 1 to 5 µM
SMILES: O=C(NCc1ccccn1)C1CCN(Cc2cccc(-c3ccccc3)c2)C1 (centres unmarked) [Compound 29, 1-Biphenyl-3-ylmethyl-pyrrolidine-3-carboxylic acid (pyridin-2-ylmethyl)-amide]

- IC50 (read-out: Nav1.6 Tonic): 10 to 20 µM
- IC50 (read-out: Nav1.6 inac): < 1 µM
SMILES: Cc1cccc(CNC(=O)C2CCN(Cc3cccc(Oc4ccccc4)c3)C2)c1 (centres unmarked) [Compound 82, 1-(3-Phenoxy-benzyl)-pyrrolidine-3-carboxylic acid 3-methyl-benzylamide]

- IC50 (read-out: Nav1.6 Tonic): > 20 µM
- IC50 (read-out: Nav1.6 inac): 1 to 5 µM
SMILES: CC1(C(=O)NCc2ccccn2)CCN(Cc2coc(-c3ccccc3)n2)C1 (centres unmarked) [Compound 99, 3-Methyl-1-(2-phenyl-oxazol-4-ylmethyl)-pyrrolidine-3-carboxylic acid (pyridin-2-ylmethyl)-amide]

Source: patent US9676757B2, “Heterocyclic compounds as NaV channel inhibitors and uses thereof” (Merck Patent GmbH, priority 2014, dated 2017)
